{"source": "patent US20250312258A1", "about": "“2,3-PYRROLIDINEDIONE CONJUGATES AND METHODS OF USING THEREOF” (North Carolina State University, priority 2022, published 2025)", "key": {"VRSA": {"tested_on": "VRSA", "assay": "MIC against VRSA strain panel (VRS/NRS strains)", "type": "cell-based", "details": "Staphylococcus aureus, VRSA, read-out: MIC"}, "MRSA 33591": {"tested_on": "MRSA 33591", "assay": "Broth microdilution MIC, MRSA 33591", "type": "cell-based", "details": "Staphylococcus aureus, read-out: MIC (MRSA 33591)"}, "MRSA": {"tested_on": "MRSA", "assay": "MIC against MRSA strain panel", "type": "cell-based", "details": "Staphylococcus aureus, the 4th table, read-out: MIC"}, "vanA VRE 700221": {"tested_on": "vanA VRE 700221", "assay": "MIC against vanA VRE 700221", "type": "cell-based, Enterococcus spp.", "details": "Enterococcus"}, "VRE": {"tested_on": "VRE", "assay": "MIC / in vitro activity against VRE strain panel", "type": "cell-based, Enterococcus spp.", "details": "for MIC: Enterococcus, VRE, read-out: MIC"}, "Group B Strep": {"tested_on": "Group B Strep", "assay": "MIC against Group B Strep strain panel", "type": "cell-based", "details": "read-out: MIC"}}, "note": "Where two headings read alike, the source gives them in different places."}
{"molecule": "CCC1C(c2ccc(C(F)(F)F)cc2)=C(O)C(=O)N1C1CCC(NC)CC1", "note": "(stereo not shown) [Compound 4]", "values": [{"measurement": "MIC", "setting": "VRSA; VRS-3a VRSA, the 5th table", "value": 4, "unit": "µg/mL"}, {"measurement": "MIC", "setting": "VRSA; VRS-3b VRSA, the 5th table", "value": "> 64", "unit": "µg/mL"}, {"measurement": "MIC", "setting": "VRSA; VRS-4 (VRSA), the 3rd table", "value": 4, "unit": "µg/mL"}, {"measurement": "MIC", "setting": "VRSA; VRS-4 VRSA, the 5th table", "value": 8, "unit": "µg/mL"}, {"measurement": "MIC", "setting": "VRSA; VRS-5 VRSA, the 5th table", "value": 8, "unit": "µg/mL"}, {"measurement": "MIC", "setting": "VRSA; VRS-6 VRSA, the 5th table", "value": 16, "unit": "µg/mL"}, {"measurement": "MIC", "setting": "VRSA; VRS-7 VRSA, the 5th table", "value": 8, "unit": "µg/mL"}, {"measurement": "MIC", "setting": "VRSA; VRS-8 VRSA, the 5th table", "value": 16, "unit": "µg/mL"}, {"measurement": "MIC", "setting": "VRSA; VRS-9 VRSA, the 5th table", "value": 16, "unit": "µg/mL"}, {"measurement": "MIC", "setting": "VRSA; VRS-10 VRSA, the 5th table", "value": 16, "unit": "µg/mL"}, {"measurement": "MIC", "setting": "VRSA; VRS-11a VRSA, the 5th table", "value": 16, "unit": "µg/mL"}, {"measurement": "MIC", "setting": "VRSA; VRS-11b VRSA, the 5th table", "value": 16, "unit": "µg/mL"}, {"measurement": "MIC", "setting": "MRSA 33591", "value": 1, "unit": "µg/mL"}, {"measurement": "MIC", "setting": "MRSA; 6215 MRSA", "value": 1, "unit": "µg/mL"}, {"measurement": "MIC", "setting": "MRSA; 6217 MRSA", "value": 1, "unit": "µg/mL"}, {"measurement": "MIC", "setting": "MRSA; 6218 MRSA", "value": 1, "unit": "µg/mL"}, {"measurement": "MIC", "setting": "MRSA; 6220 MRSA", "value": 1, "unit": "µg/mL"}, {"measurement": "MIC", "setting": "MRSA; 6231 MRSA", "value": 1, "unit": "µg/mL"}, {"measurement": "MIC", "setting": "MRSA; AR-978 MRSA", "value": 1, "unit": "µg/mL"}, {"measurement": "MIC", "setting": "MRSA; AR-979 MRSA", "value": 1, "unit": "µg/mL"}, {"measurement": "MIC", "setting": "MRSA; AR-993 MRSA", "value": 1, "unit": "µg/mL"}, {"measurement": "MIC", "setting": "MRSA; AR-997 MRSA", "value": 1, "unit": "µg/mL"}, {"measurement": "MIC", "setting": "vanA VRE 700221; VRE, the 2nd table, read-out: MIC (vanA VRE 700221)", "value": 8, "unit": "µg/mL"}, {"measurement": "MIC", "setting": "vanA VRE 700221; vanA VRE 700221, the 3rd table, read-out: MIC", "value": 8, "unit": "µg/mL"}, {"measurement": "MIC", "setting": "VRE; 1593 (VRE), the 3rd table", "value": 8, "unit": "µg/mL"}, {"measurement": "MIC", "setting": "VRE; 1593 VRE, the 4th table", "value": 8, "unit": "µg/mL"}, {"measurement": "MIC", "setting": "VRE; 1751 (VRE), the 3rd table", "value": 4, "unit": "µg/mL"}, {"measurement": "MIC", "setting": "VRE; 1751 VRE, the 6th table", "value": 4, "unit": "µg/mL"}, {"measurement": "MIC", "setting": "VRE; 1772 VRE, the 6th table", "value": 8, "unit": "µg/mL"}, {"measurement": "MIC", "setting": "VRE; 1946 VRE, the 6th table", "value": 8, "unit": "µg/mL"}, {"measurement": "MIC", "setting": "VRE; 2059 VRE, the 6th table", "value": 8, "unit": "µg/mL"}, {"measurement": "MIC", "setting": "VRE; 2431 (VRE), the 3rd table", "value": 8, "unit": "µg/mL"}, {"measurement": "MIC", "setting": "VRE; 2431 VRE, the 6th table", "value": 8, "unit": "µg/mL"}, {"measurement": "MIC", "setting": "VRE; 2574 VRE, the 6th table", "value": 8, "unit": "µg/mL"}, {"measurement": "MIC", "setting": "VRE; 3053 VRE, the 6th table", "value": 16, "unit": "µg/mL"}, {"measurement": "MIC", "setting": "VRE; 3183 (VRE), the 3rd table", "value": 4, "unit": "µg/mL"}, {"measurement": "MIC", "setting": "VRE; 3183 VRE, the 6th table", "value": 4, "unit": "µg/mL"}, {"measurement": "MIC", "setting": "VRE; 3190 VRE, the 6th table", "value": 8, "unit": "µg/mL"}, {"measurement": "MIC", "setting": "VRE; 3191 VRE, the 6th table", "value": 8, "unit": "µg/mL"}, {"measurement": "MIC", "setting": "VRE; 3222 (VRE, the 3rd table)", "value": 8, "unit": "µg/mL"}, {"measurement": "MIC", "setting": "VRE; 3222 VRE, the 6th table", "value": 8, "unit": "µg/mL"}, {"measurement": "MIC", "setting": "VRE; 3235 VRE, the 6th table", "value": 8, "unit": "µg/mL"}, {"measurement": "MIC", "setting": "VRE; 3239 VRE, the 6th table", "value": 8, "unit": "µg/mL"}, {"measurement": "MIC", "setting": "VRE; 3241 VRE, the 6th table", "value": 8, "unit": "µg/mL"}, {"measurement": "MIC", "setting": "VRE; 3623 VRE, the 6th table", "value": 8, "unit": "µg/mL"}, {"measurement": "in vitro activity against vancomycin-resistant Enterococcus spp. (VRE) compared with vancomycin", "setting": "VRE; FIGS. 4A-4D", "value": "superior in vitro activity"}, {"measurement": "MIC", "setting": "Group B Strep; 2008-57 Group B Strep, the 9th table", "value": 0.5, "unit": "µg/mL"}, {"measurement": "MIC", "setting": "Group B Strep; 2008-70 Group B Strep, the 9th table", "value": 0.5, "unit": "µg/mL"}, {"measurement": "MIC", "setting": "Group B Strep; 2008-87 Group B Strep, CA-MHB w/5% LHB, the 4th table", "value": 0.5, "unit": "µg/mL"}, {"measurement": "MIC", "setting": "Group B Strep; 2008-115 Group B Strep, the 9th table", "value": 0.5, "unit": "µg/mL"}, {"measurement": "MIC", "setting": "Group B Strep; 2009-20 Group B Strep, the 9th table", "value": 0.5, "unit": "µg/mL"}, {"measurement": "MIC", "setting": "Group B Strep; 2009-40 Group B Strep, the 9th table", "value": 0.5, "unit": "µg/mL"}, {"measurement": "MIC", "setting": "Group B Strep; 2009-43 Group B Strep, the 9th table", "value": 0.5, "unit": "µg/mL"}, {"measurement": "MIC", "setting": "Group B Strep; 2009-51 Group B Strep, the 9th table", "value": 0.5, "unit": "µg/mL"}, {"measurement": "MIC", "setting": "Group B Strep; 2009-57 Group B Strep, the 9th table", "value": 0.5, "unit": "µg/mL"}, {"measurement": "MIC", "setting": "Group B Strep; 2009-59 Group B Strep, the 9th table", "value": 0.5, "unit": "µg/mL"}, {"measurement": "MIC", "setting": "Group B Strep; 2009-60 Group B Strep, the 9th table", "value": 0.5, "unit": "µg/mL"}, {"measurement": "MIC", "setting": "Group B Strep; 2009-61 Group B Strep, CA-MHB w/5% LHB, the 4th table", "value": 0.5, "unit": "µg/mL"}, {"measurement": "MIC", "setting": "Group B Strep; 2009-62 Group B Strep, CA-MHB w/5% LHB, the 4th table", "value": 0.25, "unit": "µg/mL"}, {"measurement": "MIC", "setting": "Group B Strep; J4182 Group B Strep, the 9th table", "value": 0.5, "unit": "µg/mL"}, {"measurement": "MIC", "setting": "Group B Strep; J4183 Group B Strep, the 9th table", "value": 0.5, "unit": "µg/mL"}, {"measurement": "MIC", "setting": "Group B Strep; J4185 Group B Strep, the 9th table", "value": 0.5, "unit": "µg/mL"}, {"measurement": "MIC", "setting": "Group B Strep; J4186 Group B Strep, the 9th table", "value": 0.5, "unit": "µg/mL"}, {"measurement": "MIC", "setting": "Group B Strep; J4222 Group B Strep, the 9th table", "value": 0.5, "unit": "µg/mL"}]}
